“Also recorded” adds a separate entry of the source.
Key:
[1] = system: BM hematopoietic stem and progenitor cells; assay: Hematopoietic regeneration in C57B16 mice after 700 cGy TBI (progenitor assays, competitive repopulation); assay type: in vivo, mouse
Description: (§1) BM cells were collected into PBS (Cellgro, Manassas, Va.) with 10% fetal bovine serum (Hyclone, Logan, Utah) and 1% penicillin/streptomycin (GIBCO, Grand Island, N.Y.). Viable BM cells were quantified using Trypan Blue Stain (Lonza, Basel, Switzerland) to exclude apoptotic and dead cells. Cells were then incubated with anti-c-kit, anti-Sca-1, anti-lineage cocktail, anti-CD41, anti-CD48, and anti-CD150 antibodies (Biolegend and eBiosciences, San Diego, Calif.; BD, San Jose, Calif.) to measure ckit^+sca-1^+lin^− (KSL) progenitor cells or CD150′CD41^−CD48^−KSL (SLAM/KSL) as previously described (Kiel et al, Cell 121:1109-1121 (2005)). Colony forming cells (CFCs) and CFU-S12 assays were also performed to measure functional hematopoietic stem/progenitor cell content. For CFCs, either whole BM or cultured lineage−cells, or KSL cells were plated onto methylcellulose (StemCell Technologies, Vancouver, BC, Canada), and colonies were scored on day 14. 1×10^5 BM or 2×10^5 cells were collected from donor mice and injected via tail vein into recipient C57B16 mice that had been given 950 cGy TBI. At day +12 post-injection, spleens from recipient mice were harvested and stained with Bouin's fixative solution (Ricca Chemical Company, Arlington, Tex.), and colonies were counted as previously described (Till and MeRadiat. Res. 14:213-222 (1961)). Complete blood counts were performed on a HemaVet 950 (Drew Scientific, Dallas, Tex.).
(§2) Competitive repopulation assays were also performed using donor C57B16 mice (CD45.2^+) that had been irradiated with 700 cGy TBI and gavaged daily with 10 μg/G erlotinib (Genentech, San Francisco, Calif.) or 150 μl water beginning on day 0 and continued through day +14. Donor BM cells were injected via tail vein into recipient B6.SJL mice (CD45.1^+) at a dose of 5×10^5 cells with a competing dose of host 1×10^5 BM MNCs. Tie2Cre;Bak1^−/−;Bax^FL/− mice were gavaged daily with 10 μg/G erlotinib or water starting day −3 and given 300 cGy TBI on day 0. Erlotinib administration continued until the timepoint of donor BM cell collection and analysis. Tie2Cre;Bak1^−/−;Bax^FL/− BM cells were injected via tail vein into recipient CD45.1^+ mice at a cell dose of 3×10^5 cells with a competing dose of host 1×10^5 CD45.1^+ cells. Multilineage hematopoietic reconstitution was measured in the PB of recipient mice by flow cytometry at 4, 8, and 12 weeks post-transplant. For survival studies with erlotinib administration, C57B16 mice were exposed to 700 cGy and then given 10 μg/G erlotinib or water starting day −3 and continuing daily through day +14.
Ten micrometer sections were cut using they CryoJane tape system (Instrumedics Inc, Hackensack, N.J., USA). Femurs were stained with hematoxylin and eosin or anti-mouse endothelial cell antibody (MECA-32) as previously described (Salter et al, Blood 113:2104-2107 (2009)) to assess BM cellularity and the BM vasculature after irradiation. Images were obtained using an Axiovert 200 microscope (Carl Zeiss Microscopy, Thornwood, N.Y.) or a Leica SP5 confocal microscope (Leica Microsystems Inc, Buffalo Grove, Ill.). Adobe Photoshop software (version 9.0.2, Adobe Systems, San JoSe, Calif.) was used to quantify positive signal as a measure of spatial distribution in the fields (Lehr et al, J. Histochem. Cytochem. 45:1559-1565 (1997), Lehr et al, J. Histochem. Cytochem. 47:119-126 (1999)).

[2] = system: BM HSC and progenitor cells; assay: Erlotinib pre-treatment of Tie2Cre;Bak1-/-;BaxFl/- mice, 300 cGy TBI, BM HSC and progenitor cell content; assay type: in vivo, mouse
Description: (§3) FIGS. 5A-5D. (FIG. 5A) Schematic diagram of irradiation and treatment of Tie2Cre;Bak1^−/−;Bax^Fl/− mice with erlotinib or water starting 3 days prior to TBI with evaluation of BM progenitor cell content and HSC repopulating capacity via competitive transplantation at +2 hours after TBI. […] A Student's 2-tailed t-test was used for all statistical analyses.
as §2

[3] = system: BM lin- cells; assay: Culture of BM lin- cells from VavCre;EGFRfl/fl or VavCre;EGFR+/+ mice with erlotinib; assay type: cell-based, mouse; settings: TSF + 10 uM erlotinib, 72 hours
Description: Cell apoptosis and necrosis were analyzed by flow cytometry according to manufacturer's protocols with Annexin V-FITC and 7-AAD staining (BD, San Jose, Calif.). […] Cells were fixed and permeabilized with Fix Buffer I and Perm Buffer III (BD), and then stained with mouse anti-phospho-AKT-S473 PE (BD) or isotype control. Cell cycle analysis was performed by flow cytometric analysis modified from previous reports (Jordan et al, Exp. Hematol. 24:1347-1355 (1996), Chute et al, Hum. Gene Ther. 11:2515-2528 (2000), Sungartz et al, Blood 119:1308-1309 (2012)). Briefly, cells were fixed and permeabilized with 0.25% Saponin (Calbiochem, La Jolla, Calif.), 2.5% paraformaldehyde, 2% FBS in 1×PBS, and then labeled with Ki67-FITC and 7-AAD (BD). BM lin^− cells from VavCre;EGFR^+/+ or VavCre;EGER^fl/fl were cultured with TSF or TSF+10 μM erlotinib, or TSF following 300 cGy for 72 hours, and then collected for total cell counts and CFCs analysis.

[4] = system: C57B16 mice; assay: Survival of C57B16 mice after 700 cGy TBI; assay type: in vivo, mouse
[5] = system: EGFR; assay: EGFR phosphorylation in BM KSL cells of erlotinib-treated Tie2Cre;Bak1-/-;BaxFl/- mice; assay type: in vivo, mouse; settings: erlotinib-treated Tie2Cre;Bak1-/-;BaxFl/- mice vs water
Description: as §3

[6] = system: BM KSL cells; assay: Culture of 300 cGy-irradiated BM KSL cells with BM ECs or TSF cytokines; CFC and CFU-S12 recovery; assay type: cell-based, mouse; settings: screen of candidate proteins from cytokine array; data not shown
Description: as §1, with “Tex.). […]” for “Tex.).”

[7] = 700 cGy TBI, erlotinib 10 ug/G oral gavage daily through day +14, vs water

Q: How did the “HSC pool at day +14 post-TBI by competitive repopulation assay” value ([1]; 700 cGy TBI, erlotinib 10 ug/G oral gavage daily through day +14) turn out when C#Cc1cccc(Nc2ncnc3cc(OCCOC)c(OCCOC)cc23)c1 [erlotinib] was run?
A: The value was “essentially absent”.

Q: What about the “BM CFCs and CFU-S12 at day +14” value [1, 7] of the same molecule?
A: The value was “significantly reduced; also recorded: persistent, significant depletion”.

Q: And the “BM cellularity at day +14” value [1, 7]?
A: Its value is “persistent BM hypoplasia”.

Q: And the “BM HSCs and progenitor cells at day +7 post-TBI” value ([1]; 700 cGy TBI, erlotinib 10 ug/G oral gavage daily, same in control mice, data not shown)?
A: Its value is “depletion of BM HSCs and progenitor cells”.

Q: What about the “short-term and longer-term HSCs (4 week through 12 week donor cell engraftment)” value ([1]; 700 cGy TBI, erlotinib-treated donors vs control) of the same molecule?
A: Its value is “marked reduction”.

Q: What about the “hematopoietic reconstitution following total body irradiation” value ([1]; Example 1, administration of erlotinib to mice) of the same molecule?
A: The value was “marked delay”.

Q: What about the “engraftment of myeloid cells, B cells and T cells at 12 weeks post-transplant” value ([2]; BM from erlotinib-treated Tie2Cre;Bak1-/-;BaxFl/- mice vs irradiated control) of the same molecule?
A: The value was “reduced engraftment”.

Q: What about the “BM KSL cells and CFU-S12 following TBI” value ([2]; erlotinib from 3 days prior to 300 cGy TBI, +2 hours after irradiation, vs water) of the same molecule?
A: The value was “decreased BM KSL cells and decreased BM CFU-S12 content; also recorded: significantly decreased”.

Q: What about the “decreased HSC content (4- to 12-week engraftment in competitively transplanted recipients)” value ([2]; erlotinib-treated, 300 cGy irradiated Tie2Cre;Bak1-/-;BaxFl/- donors vs water) of the same molecule?
A: Its value is “more than 20 fold”.

Q: What about the “total cells and CFCs” value ([3]; EGFR+/+ BM lin- cells) of the same molecule?
A: The value was “decreased yield in total cells and CFCs; also recorded: significantly less total cells and CFCs”.

Q: What about the “total cell expansion or CFC production” value ([3]; EGFRfl/fl BM lin- cells, vs cytokines alone) of the same molecule?
A: Its value is “no significant effect”.

Q: And the “mice that survived beyond day +27” value ([4]; 10 ug/G erlotinib oral gavage from 3 days prior to TBI for 14 days post-irradiation, water controls 53% at day +30)?
A: Its value is 0 of 15.

Q: And the “mice that died by day +27” value ([4]; 10 ug/G erlotinib via gavage from 3 days prior to TBI until day +14)?
A: The value was 15 of 15.

Q: And the “EGFR-phosphorylation in BM KSL cells” value [5]?
A: The value was “decrease in EGFR-phosphorylation”.

B1: IL17f: candidate cytokine from BM serum array screened on irradiated BM KSL cells (protein, UniProt Q7TNI7 29-161, looked up)
Interleukin-17F: RKNPKAGVPALQKAGNCPPLEDNTVRVDIRIFNQNQGISVPREFQNRSSSPWDYNITRDPHRFPSEIAEAQCRHSGCINAQGQEDSTMNSVAIQQEILVLRREPQGCSNSFRLEKMLLKVGCTCVKPIVHQAA
Q: B1 was tested. Which “modulation of the activity of FL/- ECs or FL/+ ECs in promoting BM KSL cell recovery after irradiation” value [6] did it give?
A: The value was “none modulated the activity”.

Q: What about the “recovery of BM KSL cells in vitro following irradiation” value [6] of the same molecule?
A: The value was “none of these proteins significantly altered the recovery”.

B2: IL17: candidate cytokine from BM serum array screened on irradiated BM KSL cells (protein, UniProt Q62386 26-158, looked up)
Interleukin-17A: AAIIPQSSACPNTEAKDFLQNVKVNLKVFNSLGAKVSSRRPSDYLNRSTSPWTLHRNEDPDRYPSVIWEAQCRHQRCVNAEGKLDHHMNSVLIQQEILVLKREPESCPFTFRVEKMLVGVGCTCVASIVRQAA
Q: Which results are given for B2?
A: modulation of the activity of FL/- ECs or FL/+ ECs in promoting BM KSL cell recovery after irradiation [6]: none modulated the activity; recovery of BM KSL cells in vitro following irradiation [6]: none of these proteins significantly altered the recovery

B3: KC: keratinocyte-derived chemokine, candidate protein screened on irradiated BM KSL cells (protein, UniProt P12850 25-96, looked up)
Growth-regulated alpha protein: APIANELRCQCLQTMAGIHLKNIQSLKVLPSGPHCTQTEVIATLKNGREACLDPEAPLVQKIVQKMLKGVPK
Q: Which results are given for B3?
A: modulation of the activity of FL/- ECs or FL/+ ECs in promoting BM KSL cell recovery after irradiation [6]: none modulated the activity; recovery of BM KSL cells in vitro following irradiation [6]: none of these proteins significantly altered the recovery

B4: IL5: candidate cytokine from BM serum array screened on irradiated BM KSL cells (protein, UniProt P04401 21-133, looked up)
Interleukin-5: MEIPMSTVVKETLTQLSAHRALLTSNETMRLPVPTHKNHQLCIGEIFQGLDILKNQTVRGGTVEMLFQNLSLIKKYIDRQKEKCGEERRRTRQFLDYLQEFLGVMSTEWAMEG
Q: What does the source list for B4?
A: modulation of the activity of FL/- ECs or FL/+ ECs in promoting BM KSL cell recovery after irradiation [6]: none modulated the activity; recovery of BM KSL cells in vitro following irradiation [6]: none of these proteins significantly altered the recovery

Reference: patent US20130331326A1, “METHOD OF INDUCING HEMATOPOIETIC RECONSTRUCTION” (DUKE UNIVERSITY, priority 2011, published 2013)
